Source: patent EP4624457A1, “I[…] DERIVATIVES, I[…] NEURODEGENERATIVE DISEASES” (Centre National de la Recherche Scientifique, priority 2024, dated 2025)
“And” between values parts separate entries of the source, which are not always exact repeats. Equal entries are not always repeated.

Tested on: A2780 ovarian carcinoma cells
Experiment: Phosphatidylserine exposure assay (FITC-Annexin V / propidium iodide, flow cytometry)
Format: cell-based
Method: • Figure 1 represents the chemical structure of ingrilimine according to compound (Illa) formula. • Figure 2 represents the cytotoxic activity of ingrilimine. A2780 ovarian and HT29 colorectal carcinoma cells were grown in RPMI 1640 supplemented with 10% fetal calf serum (FCS) and 1% glutamine. U87-MG glioblastoma cells were grown in Dulbecco minimal essential medium containing 4.5 g/L glucose, 10% FCS and 1% glutamine at 37 °C in a humidified atmosphere containing 5% CO2. For IC50 determination, the cells were seeded in 96-well plates (3 × 10^3 cells/well) containing 90 µL of growth medium. After 24 h of culture, the cells were treated with ingrilimine at 10 different final concentrations. Cell viability was determined by luminescence after 72 h incubation. (a) Effect of ingrilimine on A2780 ovarian carcinoma cells. (b) Effect of ingrilimine on U87-MG glioblastoma cells. (c) Effect of ingrilimine on U87-MG glioblastoma cells • Figure 3a-3f represent the mitochondrial dysfunction provoked by ingrilimine. […] Sector Q normal cells that accumulated the JC-1 dye (fluorescence emission 590 nm). […] (a) Non-treated cells incubated with the carrier (DMSO) for 24 h. (b) HCT116 cells incubated with 10 nN ingrilimine for 24 h. (c) HCT116 cells incubated with 250 nM ingrilimine for 24 h. (d) Non-treated cells incubated with the carrier (DMSO) for 48 h. (e) HCT116 cells incubated with 10 nN ingrilimine for 48 h. (f) HCT116 cells incubated with 250 nM ingrilimine for 48. Changes in fluorescence emission were recorded by flow cytometry using the JC-1 mithocondrial membrane potential-dependent fluorescent dye. NT = non-treated cells; IngX = ingrilimine. • Figure 4a-4f represents phosphatidylserine exposure provoked by ingrilimine. […] Quadrants D1 and D2 with dead or necrotic cells, quadrant D3 with normal cells and quadrant D4 with apoptotic cells following phosphatidylserine exposure. (a) Non-treated A2780 cells incubated with the carrier (DMSO) for 24h. (b) A2780 cells incubated with 10 nM ingrilimine for 24 h. (c) A2780 cells incubated with 250 nM ingrilimine for 24 h. (d) Non-treated A2780 cells incubated with the carrier (DMSO) for 48 h. (e) A2780 cells incubated with 10 nM ingrilimine for 48 h. (f) A2780 cells incubated with 250 nM ingrilimine for 48. […] exposure in A2780 cell was quantified by flow cytometry using FITC-Annexin V. Dead or necrotic cells were detected using the vital dye propridium iodide. NT = non-treated cells; IngX = ingrilimine. • Figure 5 represents the antagonistic activity of ingrilimine (named "IngX" in the figure) and portimine (named "Port A" in the figure) against nicotinic acetylcholine receptors recorded by two-electrodes voltage clamp electrophysiology on Xenopus laevis oocytes. Clamped Xenopus laevis oocytes having incorporated the muscle (α1)2βγδ nAChR subtype from Torpedo marmorata (filled squares), or expressing the neuronal α3β2 nAChR subtype from rat (filled triangles), or expressing the human neuronal α7 nAChR subtype (filled circles) were exposed to portimine (100 nM - 1 mM) for 45 seconds. […] A Xenopus laevis oocyte expressing the human α7 nAChR subtype was exposed to 100 µM acetylcholine triggering the immediate opening of the receptor's channel (black bold line) followed by the very-fast closure of the channel ([…]) that became insensitive to acetylcholine during the rest of the 5 seconds exposure (desensitization). When a Xenopus laevis oocyte expressing the human α7 nAChR subtype was exposed first to 10 nM ingrilimine for 45 seconds and then to a mixture (Mix) containing 10 nM ingrilimine and 100 µM acetylcholine, the receptor's channel was closed denoting a strong antagonistic activity of the tested toxin against the α7 nAChR subtype (dotted line). […]

In the case of `C=CC1=C[C@@H]2C[C@@H](O)[C@@H](O)/C(C)=C/C/C(C)=C/CCC3=NCCC[C@]32CC1` [Ingrilimine, ingrilimine], the “Annexin V+/IP” value (10 nM, 24 h) is reported as 1.1%, the “Annexin V+/IP” value (10 nM, 48 h) is reported as 0.8% and the “Annexin V+/IP” value (50 nM, 24 h) is reported as 3.4%. For the same compound, the “Annexin V+/IP” value (50 nM, 48 h) was 10%, the “Annexin V+/IP” value (100 nM, 24 h) was 9.8% and the “Annexin V+/IP” value (100 nM, 48 h) was 20.4%. For the same compound, the “Annexin V+/IP” value (250 nM, 24 h) was 13.1%, the “Annexin V+/IP” value (250 nM, 24 h, listed as ingrilimine) was -13% and the “percentage of propidium iodide positive and annexin V positive” value (250 nM, 24 h, quadrant D2, late stage apoptotic, dead or necrotic cells) was 3.8%. For the same compound, the “Annexin V+/IP” value (250 nM, 48 h) was 31.3%, the “percentage of propidium iodide positive and annexin V positive” value (250 nM, 48 h, quadrant D2) was 17% and the “Annexin V+/IP” value (500 nM, 24 h) was 27.1%. For the same compound, the viability at 0.25 µM (Homo sapiens, A2780, 48 h, read-out: viable cells) was 45%.

With `C=CC1=C[C@@H]2[C@@H]3O[C@]4(CC[C@H](O4)[C@@H](C)C[C@@H](O)C3=O)C[C@H](O)C3=NCC[C@@]32CC1` [Portimine-A] the “Annexin V+/IP” value (1 nM, 24 h, early apoptotic cells (annexin V positive, propidium iodide negative)) was 3.4%, the “Annexin V+/IP” value (1 nM, 48 h) was 1.7% and the “Annexin V+/IP” value (5 nM, 24 h) was 6.4%. For the same compound, the “Annexin V+/IP” value (5 nM, 48 h) was 18.4%, the “Annexin V+/IP” value (10 nM, 24 h) was 13.1% and the “Annexin V+/IP” value (10 nM, 48 h) was 24.1%. For the same compound, the “Annexin V+/IP” value (20 nM, 24 h) was 13%, the “percentage of late-stage apoptotic cells and or necrotic cells” value (20 nM, 24 h) was 4.3% and the “percentage of late-stage apoptotic cells and or necrotic cells” value (20 nM, 48 h) was 15%. For the same compound, the “Annexin V+/IP” value (20 nM, 48 h, listed as Portimine) was 39% and 39.3%, the “Annexin V+/IP” value (50 nM, 24 h) was 22.8% and the viable cells (50 nM, 48 h treatment, quadrant D3) was 40%.
